Patent US10975068B2, “6-aminopyridin-3-yl thiazoles as modulators of RORγT” (Janssen Pharmaceutica NV, priority 2016, dated 2021)
Where two headings read alike, the source gives them in different places.

Columns and labels:
full-length human RORγt = full-length human RORγt (Homo sapiens (Human), UniProt P51449); experiment: RORγt (full-length human) reporter assay, Conditions B or C; type: cell-based; conditions: for inhibition at 3 µM: at 3 μM compound concentration; for RORγt (FL) Reporter Assay B or C, % inhibition (value marked *): marked *: footnote not given
In short: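 HEK293T cells transiently co-transfected with GAL4-DBD–full-length human RORγt (nt 142-1635, NM_001001523.1) plus GAL4-firefly and CMV-Renilla luciferase reporters; compounds added 4-6 h post-transfection for 16-20 h in 1.3% FBS, 0.1% DMSO. Firefly signal normalized to DMSO and saturating reference compound, then to Renilla; IC50 from concentration plots.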

[1] = target: human RORγt ligand binding domain (RORγt LBD) (Homo sapiens (Human), UniProt P51449); experiment: RORγt ThermoFluor® assay (thermal shift binding); conditions: read-out: ThermoFluor® Assay, Kd
In short: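 His-tagged human RORγt LBD (0.065 mg/mL) with 60 μM 1,8-ANS in 100 mM Hepes pH 7.0, 10 mM NaCl, 2.5 mM GSH, 0.002% Tween-20 was heated at 1 °C/min.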

[2] = read-out: RORγt (FL) Reporter Assay B or C, % inhibition
[3] = read-out: RORγt (FL) Reporter Assay B or C, IC50
[4] = Conditions B or C, read-out: RORγt (FL) Reporter Assay B or C, IC50
[5] = RORγt (FL) Reporter Assay B or C, IC50

full-length human RORγt, sequence (P51449 other isoform, or with tags, fused parts or gaps): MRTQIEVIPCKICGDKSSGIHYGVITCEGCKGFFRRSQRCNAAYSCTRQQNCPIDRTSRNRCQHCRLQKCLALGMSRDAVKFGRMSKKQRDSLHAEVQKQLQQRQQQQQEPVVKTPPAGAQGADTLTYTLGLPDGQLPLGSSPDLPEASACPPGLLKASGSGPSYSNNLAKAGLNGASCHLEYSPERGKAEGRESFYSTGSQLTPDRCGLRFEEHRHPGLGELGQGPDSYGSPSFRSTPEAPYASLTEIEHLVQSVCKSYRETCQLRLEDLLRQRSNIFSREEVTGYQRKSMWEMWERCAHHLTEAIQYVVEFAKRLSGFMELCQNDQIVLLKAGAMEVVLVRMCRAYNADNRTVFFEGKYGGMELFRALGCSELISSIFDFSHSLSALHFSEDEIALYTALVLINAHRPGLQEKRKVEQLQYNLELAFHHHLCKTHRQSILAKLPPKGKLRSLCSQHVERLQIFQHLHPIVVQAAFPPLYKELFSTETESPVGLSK
human RORγt ligand binding domain (RORγt LBD), sequence (P51449 other isoform, or with tags, fused parts or gaps): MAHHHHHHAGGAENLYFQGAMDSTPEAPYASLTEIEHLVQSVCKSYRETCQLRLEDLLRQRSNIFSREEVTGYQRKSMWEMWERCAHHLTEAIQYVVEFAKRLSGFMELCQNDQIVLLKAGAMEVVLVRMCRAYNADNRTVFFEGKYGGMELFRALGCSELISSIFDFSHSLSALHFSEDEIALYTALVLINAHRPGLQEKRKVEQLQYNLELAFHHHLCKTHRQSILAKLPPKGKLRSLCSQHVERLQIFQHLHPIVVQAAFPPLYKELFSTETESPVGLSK

inhibition at 3 µM (full-length human RORγt; [2]) [%] | IC50 (full-length human RORγt; [3]) [nM] | Kd [1] [nM] | RORγt (FL) Reporter Assay B or C, % inhibition (value marked *) (full-length human RORγt; Conditions B or C) | IC50 (full-length human RORγt; [4]) [nM] | SMILES | other results
99 | 7.7 | 3.4 | – | – | C[C@H]1CCCN1C(=O)c1nc(C(=O)NCC(C)(C)O)sc1-c1cnc(N[C@H](C)C(C)(C)C)cc1C(F)F [Example 298, 5-(4-(Difluoromethyl)-6-(((R)-3,3-dimethylbutan-2-yl)amino)pyridin-3-yl)-N-(2-hydroxy-2-methylpropyl)-4-((S)-2-methylpyrrolidine-1-carbonyl)thiazole-2-carboxamide] | –
107 | 40 | 3.7 | – | – | C[C@H]1CCCN1C(=O)c1nc(C(=O)N[C@H](C)C(C)(C)O)sc1-c1cnc(N[C@@H](C2CC2)C(F)(F)F)cc1C(F)F [Example 311, 5-(6-(((S)-1-Cyclopropyl-2,2,2-trifluoroethyl)amino)-4-(difluoromethyl)pyridin-3-yl)-N—((R)-3-hydroxy-3-methylbutan-2-yl)-4-((S)-2-methylpyrrolidine-1-carbonyl)thiazole-2-carboxamide] | –
– | – | 0.97 | 83* % | 42 | CC[C@H](Nc1cc(C(F)F)c(-c2sc(C(=O)N[C@H]3CCC[C@@H]3O)nc2C(=O)N2CCC[C@@H]2C)cn1)C(F)(F)F [Example 229, 5-(4-(Difluoromethyl)-6-(((1S)-1-(trifluoromethyl)propyl)amino)-3-pyridyl)-N-((1S,2S)-2-hydroxycyclopentyl)-4-((2S)-2-methylpyrrolidine-1-carbonyl)thiazole-2-carboxamide] | –
105 | 21 | 2.3 | – | – | C[C@H]1CCCN1C(=O)c1nc(C(=O)NC2CCS(=O)(=O)CC2)sc1-c1cnc(NC(C)(C)C)cc1C(F)F [Example 435, 5-[6-(tert-Butylamino)-4-(difluoromethyl)-3-pyridyl]-N-(1,1-dioxothian-4-yl)-4-[(2S)-2-methylpyrrolidine-1-carbonyl]thiazole-2-carboxamide] | –
– | – | 47 | 85* % | 540 | C[C@H](Nc1cc(C(F)F)c(-c2sc(C(=O)N[C@H]3C[C@H](O)C3)nc2C(=O)N2CCC[C@@H]2C)cn1)C(F)(F)F [Example 188] | –
– | – | 1.1 | 107* % | 12 | C[C@H]1CCCN1C(=O)c1nc(C(=O)NCC(C)(C)O)sc1-c1cnc(NC(C2CC2)C2CC2)cc1C(F)(F)F [Example 139, (S)-5-(6-((Dicyclopropylmethyl)amino)-4-(trifluoromethyl)pyridin-3-yl)-N-(2-hydroxy-2-methylpropyl)-4-(2-methylpyrrolidine-1-carbonyl)thiazole-2-carboxamide] | –
109 | 19 | 1.4 | – | – | CC[C@@H](Nc1cc(C(F)(F)F)c(-c2sc(C(=O)NCC(C)(C)O)nc2C(=O)N2CCC[C@@H]2C)cn1)C(F)(F)F [Example 282, N-(2-Hydroxy-2-methyl-propyl)-4-[(2S)-2-methylpyrrolidine-1-carbonyl]-5-[4-(trifluoromethyl)-6-[[(1R)-1-(trifluoromethyl)propyl]amino]-3-pyridyl]thiazole-2-carboxamide] | –
– | – | 12 | 107* % | 100 | C[C@H](Nc1cc(C(F)F)c(-c2sc(C(=O)N[C@@H]3COC[C@H]3O)nc2C(=O)N2CCC[C@@H]2C)cn1)C(F)(F)F [Example 215, 5-(4-(Difluoromethyl)-6-(((1S)-2,2,2-trifluoro-1-methyl-ethyl)amino)-3-pyridyl)-N-((3R,4S)-4-hydroxytetrahydrofuran-3-yl)-4-((2S)-2-methylpyrrolidine-1-carbonyl)thiazole-2-carboxamide] | –
– | 15 | 2.9 | – | – | C[C@H]1CC(F)(F)CN1C(=O)c1nc(C(=O)N[C@H]2C[C@H](O)C2)sc1-c1cnc(N[C@@H](C2CC2)C(F)(F)F)cc1C(F)F [Example 315, 5-(6-(((S)-1-Cyclopropyl-2,2,2-trifluoroethyl)amino)-4-(difluoromethyl)pyridin-3-yl)-4-((S)-4,4-difluoro-2-methylpyrrolidine-1-carbonyl)-N-((1r,3S)-3-hydroxycyclobutyl)thiazole-2-carboxamide] | inhibition at 1 µM (full-length human RORγt; at 1 μM compound concentration, read-out: RORγt (FL) Reporter Assay B or C, % inhibition): 99%
– | – | 0.2 | 110* % | 13 | CC[C@H](Nc1cc(C(F)(F)F)c(-c2sc(C(=O)NCC(C)(C)O)nc2C(=O)N2CCCC[C@@H]2C)cn1)C(F)(F)F [Example 112, N-(2-Hydroxy-2-methylpropyl)-4-((S)-2-methylpiperidine-1-carbonyl)-5-(6-(((S)-1,1,1-trifluorobutan-2-yl)amino)-4-(trifluoromethyl)pyridin-3-yl)thiazole-2-carboxamide] | –
– | – | 22 | – | 32 | C[C@H](Nc1cc(C(F)F)c(-c2sc(C(=O)N[C@@H]3COC[C@@H]3O)nc2C(=O)N2CCC[C@@H]2C)cn1)C(F)(F)F (single isomer, unassigned) [Example 159, 5-(4-(Difluoromethyl)-6-(((S)-1,1,1-trifluoropropan-2-yl)amino)pyridin-3-yl)-N-((3R*,4R*)-4-hydroxytetrahydrofuran-3-yl)-4-((S)-2-methylpyrrolidine-1-carbonyl)thiazole-2-carboxamide] | RORγt (FL) Reporter Assay B or C, % inhibition (value marked ***) (full-length human RORγt; Conditions B or C, marked ***: footnote not given): 93*** %
108 | 7.7 | 1.9 | – | – | C[C@H]1CCCN1C(=O)c1nc(C(=O)NC2(C)COC2)sc1-c1cnc(NC(C)(C)C)cc1C(F)(F)F [Example 253, 5-[6-(tert-Butylamino)-4-(trifluoromethyl)-3-pyridyl]-N-(3-methyloxetan-3-yl)-4-[(2S)-2-methylpyrrolidine-1-carbonyl]thiazole-2-carboxamide] | –
98 | 63 | 0.23 | – | – | CC[C@H](Nc1cc(C(F)F)c(-c2sc(C(=O)N[C@@H]3CC[C@@H](O)C3)nc2C(=O)N2CC(F)(F)C[C@@H]2C)cn1)C(F)(F)F [Example 424, 4-[(2S)-4,4-Difluoro-2-methyl-pyrrolidine-1-carbonyl]-5-[4-(difluoromethyl)-6-[[(1S)-1-(trifluoromethyl)propyl]amino]-3-pyridyl]-N-[(1R,3R)-3-hydroxycyclopentyl]thiazole-2-carboxamide] | –
– | – | 0.17 | – | 14 | C[C@H]1CCCCN1C(=O)c1nc(C(=O)NC2CCS(=O)(=O)CC2)sc1-c1cnc(NC2CCCC2)cc1C(F)(F)F [Example 28, (S)-5-(6-(Cyclopentylamino)-4-(trifluoromethyl)pyridin-3-yl)-N-(1,1-dioxidotetrahydro-2H-thiopyran-4-yl)-4-(2-methylpiperidine-1-carbonyl)thiazole-2-carboxamide] | inhibition at 6 µM (full-length human RORγt; read-out: RORγt (FL) Reporter Assay B or C, % inhibition @ 6 μM, Conditions B or C, @ 6 μM): 123%
– | – | 2.5 | 102* % | 53 | C[C@H](Nc1cc(C(F)F)c(-c2sc(C(=O)N[C@H](C)C(C)(C)O)nc2C(=O)N2CC(F)(F)C[C@@H]2C)cn1)C(F)(F)F [Example 198] | –
– | – | 3.7 | 100* % | 120 | CC[C@@H](Nc1cc(C(F)F)c(-c2sc(C(=O)NCC(C)(C)O)nc2C(=O)N2CCC[C@@H]2C)cn1)C1CC1 (relative stereo) [Example 167, 5-(6-(((R*)-1-Cyclopropyl)amino)-4-(difluoromethyl)pyridine-3-yl)-N-(2-hydroxy-2-methylpropyl)-4-((S)-2-methylpyrrolidine-1-carbonyl)thiazole-2-carboxamide] | –

SMILES | inhibition at 3 µM (full-length human RORγt; [2]) [%] | IC50 (full-length human RORγt; [3]) [nM] | Kd [1] [nM] | RORγt (FL) Reporter Assay B or C, % inhibition (value marked *) (full-length human RORγt; Conditions B or C) | IC50 (full-length human RORγt; [4]) [nM] | other results
CC[C@H](Nc1cc(C(F)F)c(-c2sc(C(=O)NC3CCOCC3)nc2C(=O)N2C3CCC2CC3)cn1)C(F)(F)F [Example 153] | – | – | 1.1 | 98* % | 52 | –
C[C@H](CO)NC(=O)c1nc(C(=O)N2C3CCC2CC3)c(-c2cnc(NC(C)(C)C)cc2C(F)F)s1 [Example 427, 4-((1s,4s)-7-Azabicyclo[2.2.1]heptane-7-carbonyl)-5-[6-(tert-butylamino)-4-(difluoromethyl)-3-pyridyl]-N-[(1R)-2-hydroxy-1-methyl-ethyl]thiazole-2-carboxamide] | 113 | – | 3 | – | – | IC50 (full-length human RORγt; [5]): 3 nM
CC[C@H](Nc1cc(C(F)F)c(-c2sc(C(=O)N[C@@H]3CCC[C@H]3O)nc2C(=O)N2C3CCC2CC3)cn1)C(F)(F)F [Example 225, 4-((1s,4s)-7-Azabicyclo[2.2.1]heptane-7-carbonyl)-5-(4-(difluoromethyl)-6-(((1S)-1-(trifluoromethyl)propyl)amino)-3-pyridyl)-N-((1R,2R)-2-hydroxycyclopentyl)thiazole-2-carboxamide] | – | – | 0.95 | 110* % | 6.8 | –
C[C@H](Nc1cc(C(F)F)c(-c2sc(C(=O)N[C@H]3CCC[C@@H]3O)nc2C(=O)N2C3CCC2CC3)cn1)C(F)(F)F [Example 293, 4-((1s,4s)-7-Azabicyclo[2.2.1]heptane-7-carbonyl)-5-(4-(difluoromethyl)-6-(((S)-1,1,1-trifluoropropan-2-yl)amino)pyridin-3-yl)-N-((1S,2S)-2-hydroxycyclopentyl)thiazole-2-carboxamide] | 94 | – | 2 | – | – | IC50 (full-length human RORγt; [5]): 13 nM
